Measurements: ChEMBL document CHEMBL4316647, “Raistrickindole A, an Anti-HCV Oxazinoindole Alkaloid from Penicillium raistrickii IMB17-034” (J Nat Prod, 2019)

System: not listed separately
Test: Cytotoxicity against human Huh7.5 cells assessed as reduction in cell viability
Format: cell-based
Conditions: not given

Structure (SMILES)	CC50
CCC[C@H](NC(=O)[C@@H]1[C@H]2CCC[C@H]2CN1C(=O)[C@@H](NC(=O)[C@@H](NC(=O)c1cnccn1)C1CCCCC1)C(C)(C)C)C(=O)C(=O)NC1CC1 [TELAPREVIR]	25.8 µM
O=C1Cn2c(nc3ccccc3c2=O)-c2ccccc2N1	> 200 µM
O=C1NCc2nc3ccccc3c(=O)n2-c2ccccc21 [SCLEROTIGENIN]	> 200 µM
O=C1N[C@@H](Cc2ccccc2)C(=O)N(O)[C@H]1C[C@]1(O)c2ccccc2N2C(=O)C[C@@H](c3ccccc3)N[C@H]21	88.4 µM
O=C1N[C@@H](Cc2ccccc2)C(=O)N2O[C@H]3Nc4ccccc4[C@@]3(O)C[C@@H]12	> 200 µM

System: A549
Test: Cytotoxicity against human A549 cells
Format: functional, cell-based
Conditions: not given

Structure (SMILES)	IC50
O=C1Cn2c(nc3ccccc3c2=O)-c2ccccc2N1	≥ 100 µM
O=C1NCc2nc3ccccc3c(=O)n2-c2ccccc21 [SCLEROTIGENIN]	≥ 100 µM
O=C1N[C@@H](Cc2ccccc2)C(=O)N(O)[C@H]1C[C@]1(O)c2ccccc2N2C(=O)C[C@@H](c3ccccc3)N[C@H]21	≥ 100 µM
O=C1N[C@@H](Cc2ccccc2)C(=O)N2O[C@H]3Nc4ccccc4[C@@]3(O)C[C@@H]12	≥ 100 µM

System: HCT-116
Test: Cytotoxicity against human HCT116 cells
Format: functional, cell-based
Conditions: not given

Structure (SMILES)	IC50
O=C1Cn2c(nc3ccccc3c2=O)-c2ccccc2N1	≥ 100 µM
O=C1NCc2nc3ccccc3c(=O)n2-c2ccccc21 [SCLEROTIGENIN]	≥ 100 µM
O=C1N[C@@H](Cc2ccccc2)C(=O)N(O)[C@H]1C[C@]1(O)c2ccccc2N2C(=O)C[C@@H](c3ccccc3)N[C@H]21	≥ 100 µM
O=C1N[C@@H](Cc2ccccc2)C(=O)N2O[C@H]3Nc4ccccc4[C@@]3(O)C[C@@H]12	≥ 100 µM

System: NCI-H460
Test: Cytotoxicity against human NCI-H460 cells
Format: functional, cell-based
Conditions: not given

Structure (SMILES)	IC50
O=C1Cn2c(nc3ccccc3c2=O)-c2ccccc2N1	≥ 100 µM
O=C1NCc2nc3ccccc3c(=O)n2-c2ccccc21 [SCLEROTIGENIN]	≥ 100 µM
O=C1N[C@@H](Cc2ccccc2)C(=O)N(O)[C@H]1C[C@]1(O)c2ccccc2N2C(=O)C[C@@H](c3ccccc3)N[C@H]21	≥ 100 µM
O=C1N[C@@H](Cc2ccccc2)C(=O)N2O[C@H]3Nc4ccccc4[C@@]3(O)C[C@@H]12	≥ 100 µM

System: Pseudomonas aeruginosa
Test: Antibacterial activity against Pseudomonas aeruginosa
Format: functional
Conditions: not given

Structure (SMILES)	MIC
O=C1Cn2c(nc3ccccc3c2=O)-c2ccccc2N1	> 128 µg/mL
O=C1NCc2nc3ccccc3c(=O)n2-c2ccccc21 [SCLEROTIGENIN]	> 128 µg/mL
O=C1N[C@@H](Cc2ccccc2)C(=O)N(O)[C@H]1C[C@]1(O)c2ccccc2N2C(=O)C[C@@H](c3ccccc3)N[C@H]21	> 128 µg/mL
O=C1N[C@@H](Cc2ccccc2)C(=O)N2O[C@H]3Nc4ccccc4[C@@]3(O)C[C@@H]12	> 128 µg/mL

System: Enterococcus faecalis
Test: Antibacterial activity against Enterococcus faecalis
Format: functional
Conditions: not given

Structure (SMILES)	MIC
O=C1Cn2c(nc3ccccc3c2=O)-c2ccccc2N1	> 128 µg/mL
O=C1NCc2nc3ccccc3c(=O)n2-c2ccccc21 [SCLEROTIGENIN]	> 128 µg/mL
O=C1N[C@@H](Cc2ccccc2)C(=O)N(O)[C@H]1C[C@]1(O)c2ccccc2N2C(=O)C[C@@H](c3ccccc3)N[C@H]21	> 128 µg/mL
O=C1N[C@@H](Cc2ccccc2)C(=O)N2O[C@H]3Nc4ccccc4[C@@]3(O)C[C@@H]12	> 128 µg/mL

System: Hepatitis C virus
Test: Antiviral activity against HCV infected in human Huh7.5 cells assessed as reduction in intracellular HCV RNA incubated for 72 hrs by real-time one-step reverse-transcription polymerase chain reaction assay
Format: functional, organism-based, Hepacivirus hominis
Conditions: Huh7.5, 72 h

Structure (SMILES)	EC50
CCC[C@H](NC(=O)[C@@H]1[C@H]2CCC[C@H]2CN1C(=O)[C@@H](NC(=O)[C@@H](NC(=O)c1cnccn1)C1CCCCC1)C(C)(C)C)C(=O)C(=O)NC1CC1 [TELAPREVIR]	0.05 µM
O=C1Cn2c(nc3ccccc3c2=O)-c2ccccc2N1	7 µM
O=C1NCc2nc3ccccc3c(=O)n2-c2ccccc21 [SCLEROTIGENIN]	5.8 µM
O=C1N[C@@H](Cc2ccccc2)C(=O)N(O)[C@H]1C[C@]1(O)c2ccccc2N2C(=O)C[C@@H](c3ccccc3)N[C@H]21	> 33.3 µM
O=C1N[C@@H](Cc2ccccc2)C(=O)N2O[C@H]3Nc4ccccc4[C@@]3(O)C[C@@H]12	5.7 µM

System: Staphylococcus aureus
Test: Antibacterial activity against Staphylococcus aureus
Format: functional
Conditions: not given

Structure (SMILES)	MIC
O=C1Cn2c(nc3ccccc3c2=O)-c2ccccc2N1	> 128 µg/mL
O=C1NCc2nc3ccccc3c(=O)n2-c2ccccc21 [SCLEROTIGENIN]	> 128 µg/mL
O=C1N[C@@H](Cc2ccccc2)C(=O)N(O)[C@H]1C[C@]1(O)c2ccccc2N2C(=O)C[C@@H](c3ccccc3)N[C@H]21	> 128 µg/mL
O=C1N[C@@H](Cc2ccccc2)C(=O)N2O[C@H]3Nc4ccccc4[C@@]3(O)C[C@@H]12	> 128 µg/mL

System: Escherichia coli
Test: Antibacterial activity against Escherichia coli
Format: functional
Conditions: not given

Structure (SMILES)	MIC
O=C1Cn2c(nc3ccccc3c2=O)-c2ccccc2N1	> 128 µg/mL
O=C1NCc2nc3ccccc3c(=O)n2-c2ccccc21 [SCLEROTIGENIN]	> 128 µg/mL
O=C1N[C@@H](Cc2ccccc2)C(=O)N(O)[C@H]1C[C@]1(O)c2ccccc2N2C(=O)C[C@@H](c3ccccc3)N[C@H]21	> 128 µg/mL
O=C1N[C@@H](Cc2ccccc2)C(=O)N2O[C@H]3Nc4ccccc4[C@@]3(O)C[C@@H]12	> 128 µg/mL

System: not listed separately
Test: Selectivity index, ratio of CC50 for Cytotoxicity against human Huh7.5 cells to EC50 for antiviral activity against HCV infected in human Huh7.5 cells
Format: toxicity, cell-based
Conditions: read-out: Ratio CC50/EC50

Structure (SMILES)	selectivity ratio
CCC[C@H](NC(=O)[C@@H]1[C@H]2CCC[C@H]2CN1C(=O)[C@@H](NC(=O)[C@@H](NC(=O)c1cnccn1)C1CCCCC1)C(C)(C)C)C(=O)C(=O)NC1CC1 [TELAPREVIR]	478
O=C1Cn2c(nc3ccccc3c2=O)-c2ccccc2N1	> 28
O=C1NCc2nc3ccccc3c(=O)n2-c2ccccc21 [SCLEROTIGENIN]	> 35
O=C1N[C@@H](Cc2ccccc2)C(=O)N(O)[C@H]1C[C@]1(O)c2ccccc2N2C(=O)C[C@@H](c3ccccc3)N[C@H]21	< 3
O=C1N[C@@H](Cc2ccccc2)C(=O)N2O[C@H]3Nc4ccccc4[C@@]3(O)C[C@@H]12	> 35
